Measured values published in paper PMC9886975, “Ligand recognition mechanism of the human relaxin family peptide receptor 4 (RXFP4)” (Nature Communications, 2023).
Several values for one entry are separate records, joined by “and”; a condition that tells them apart may be missing. Identical values can stand only once. Like-named read-outs stand apart in the source and are kept apart here.

Assays:
RXFP4 H299A = biological target: T1, RXFP4 H299A (Homo sapiens, UniProt Q8TDU9, H299A); test: cAMP accumulation, RXFP4 H299A; format: cell-based
T1 construct: RXFP4(1-374)-; expressed in transfected cells; host or cells: HEK293T, transient (pCMV6)
T1 sequence (Q8TDU9 whole entry H299A): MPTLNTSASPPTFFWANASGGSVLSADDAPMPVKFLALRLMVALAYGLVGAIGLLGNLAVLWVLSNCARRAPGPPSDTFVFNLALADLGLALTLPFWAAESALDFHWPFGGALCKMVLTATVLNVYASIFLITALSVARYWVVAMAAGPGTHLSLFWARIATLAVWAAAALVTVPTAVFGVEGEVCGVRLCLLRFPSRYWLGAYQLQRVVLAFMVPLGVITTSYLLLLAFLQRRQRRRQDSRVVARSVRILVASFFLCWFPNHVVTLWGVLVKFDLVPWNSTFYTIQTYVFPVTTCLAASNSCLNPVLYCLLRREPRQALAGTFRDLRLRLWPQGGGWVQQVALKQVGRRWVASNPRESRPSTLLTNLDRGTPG
Source text: (§1) The full-length human RXFP4 (NCBI Reference Sequence: NM_181885.3) was cloned into a modified pFastBac vector (Invitrogen) with HA signal peptide to enhance receptor expression, followed by a 10× histidine tag and BRIL insertion at the N terminus. LgBiT subunit (Promega) was fused at the C terminus of RXFP4 connected by a 15-amino acid polypeptide linker. […] The engineered human Gαi2, Gβ1, bovine Gγ2, and scFv16 were cloned into the pFastBac vector (Invitrogen), respectively. For cAMP accumulation assay, human RXFP4 and RXFP3 (NCBI Reference Sequence: NM_016568.3) were cloned into pCMV6 constructs (OriGene Technologies). The mutant receptors were modified by site-directed mutagenesis in the setting of the WT constructs, with the primers designed by QuikChange Primer Design [QuickChange Primer Design (http://agilent.com.cn)] and carried out using Phanta Max Master (Vazyme). N-terminal Flag tag was added to both WT and mutant receptors for surface expression measurement. Sequences of all primers used in this study were provided in Supplementary Table 6, and all the constructs were confirmed by DNA sequencing.
(§2) CHO-K1 (ATCC, Cat#CCL-61) cells stably expressing human RXFP4 (hRXFP4-CHO) or RXFP3 (hRXFP3-CHO) were maintained in DMEM/F12 (Gibco) supplemented with 10% (v/v) fetal bovine serum (FBS) and 2 mM L-glutamine. Human embryonic kidney 293 T cells containing SV40 large T-antigen (HEK293T, ATCC, Cat#64127316) were maintained in DMEM (Gibco) supplemented with 10% (v/v) FBS, 1 mM sodium pyruvate (Gibco), 100 units/mL penicillin and 100 μg/mL streptomycin at 37 °C in 5% CO2. For cAMP assays in mutants, HEK293T cells were seeded onto 6-well cell culture plates at a density of 7 × 10^5 cells per well. After overnight incubation, cells were transfected with WT or mutant receptors using Lipofectamine 3000 transfection reagent (Invitrogen). Following 24 h culturing, the transfected cells were ready for detection.
(§3) Ligands were verified for their bioactivity in the beginning in hRXFP4-CHO, which were ready for use after 24 h culturing. For assaying mutants, HEK293T cells were used 24 h post transfection. Cells were digested with 0.02% (w/v) EDTA and seeded onto 384-well microtiter plates at a density of 8 × 10^5 cells/mL in cAMP stimulation buffer [HBSS supplemented with 5 mM HEPES, 0.1% (w/v) bovine serum albumin (BSA) and 0.5 mM 3-isobutyl-1-methylxanthine]. The cells were stimulated with different concentrations of ligands plus 1.5 μM forskolin in RXFP4 and 4 μM forskolin in RXFP3. […] The time-resolved fluorescence resonance energy transfer (TR-FRET) signals were detected by an EnVision multilabel plate reader (PerkinElmer) with the emission window ratio of 665 nm over 620 nm under 320 nm excitation. […]
(§4) Inhibition of forskolin-induced cAMP accumulation was performed in HEK293T cells transiently transfected with WT and mutant receptors. All the mutant constructs were modified by single-point mutation in the setting of the WT receptor. cAMP accumulation data were analyzed using a three-parameter logistic equation to determine pEC50 and Emax values. Emax values for mutants are defined as the window between the maximal response and vehicle control (no ligand) and expressed as a percentage of the WT. Cell surface expression was assessed by flow cytometry to detect the N-terminal Flag epitope label on the receptors and normalized to the WT receptor (shown as percentage). […]

RXFP4 WT = biological target: T2, RXFP4 WT (Homo sapiens, UniProt Q8TDU9); test: cAMP accumulation, WT RXFP4 (HEK293T); format: cell-based; conditions: 1.5 μM forskolin, mean ± S.E.M.; for EC50: 40 min RT, TR-FRET, n = 6 to 8
T2 construct: RXFP4(1-374)-; expressed in transfected cells; host or cells: HEK293T, transient (pCMV6)
T2 sequence (Q8TDU9 whole entry): as the sequence (Q8TDU9 whole entry H299A) above, with A299H counted along it
Source text: as §1
as §2, with “After overnight incubation, cells were transfected with WT or mutant receptors using Lipofectamine 3000 transfection reagent (Invitrogen).” left out
(§5) Ligands were verified for their bioactivity in the beginning in hRXFP4-CHO, which were ready for use after 24 h culturing. […] The time-resolved fluorescence resonance energy transfer (TR-FRET) signals were detected by an EnVision multilabel plate reader (PerkinElmer) with the emission window ratio of 665 nm over 620 nm under 320 nm excitation. […]
as §4

RXFP4 L118S+V122S = biological target: T3, RXFP4 L118S+V122S (Homo sapiens, UniProt Q8TDU9, L118S/V122S); test: cAMP accumulation, RXFP4 L118S+V122S; format: cell-based; conditions: HEK293T
T3 construct: RXFP4(1-374)-; expressed in transfected cells; host or cells: HEK293T, transient (pCMV6)
T3 sequence (Q8TDU9 whole entry L118S/V122S): as the sequence (Q8TDU9 whole entry H299A) above, with L118S, V122S, A299H counted along it
Source text: as §1
as §2, with “After overnight incubation, cells were transfected with WT or mutant receptors using Lipofectamine 3000 transfection reagent (Invitrogen).” left out
as §5, §4

human RXFP4 [1] = biological target: T4, human RXFP4 (Homo sapiens, UniProt Q8TDU9); test: competitive Eu-R3/I5 binding, RXFP4
T4 construct: expressed in transfected cells
T4 sequence (Q8TDU9 whole entry): as the sequence (Q8TDU9 whole entry H299A) above, with A299H counted along it
Procedure: CHO-K1 cells stably transfected with RXFP3 or RXFP4 were plated onto pre-coated poly-L-lysine 96-well plates. The competitive binding assays were performed with 5 nM Eu-H3 B1-22R (RXFP3) or Eu-R3/I5 (RXFP4) in the presence of increasing amounts of ligands as previously described[21],[86],[87]. Time-resolved fluorescence measurements were carried out at an excitation wavelength of 340 nm and an emission wavelength of 614 nm on a BMG POLARstar plate reader (BMG Labtech, Melbourne, Australia). Binding was performed in at least three independent experiments with triplicate determinations within each assay. Data are presented as means ± S.E.M. of specific binding and were fitted using a one-site binding curve in Prism software (GraphPad).
(§6) All functional study data were analyzed using GraphPad Prism 8.3 (GraphPad Software) and presented as means ± S.E.M. from at least three independent experiments. Dose-response curves were evaluated with a three-parameter logistic equation. The significance was determined with either a two-tailed Student’s t-test or one-way ANOVA with Dunnett’s multiple comparison test, and P < 0.05 was considered statistically significant.

RXFP4 W97A = biological target: T5, RXFP4 W97A (Homo sapiens, UniProt Q8TDU9, W97A); test: cAMP accumulation, RXFP4 W97A; format: cell-based
T5 construct: RXFP4(1-374)-; expressed in transfected cells; host or cells: HEK293T, transient (pCMV6)
T5 sequence (Q8TDU9 whole entry W97A): as the sequence (Q8TDU9 whole entry H299A) above, with W97A, A299H counted along it
Source text: as §1, §2, §3, §4

RXFP4 K273A = biological target: T6, RXFP4 K273A (Homo sapiens, UniProt Q8TDU9, K273A); test: cAMP accumulation, RXFP4 K273A; format: cell-based
T6 construct: RXFP4(1-374)-; expressed in transfected cells; host or cells: HEK293T, transient (pCMV6)
T6 sequence (Q8TDU9 whole entry K273A): as the sequence (Q8TDU9 whole entry H299A) above, with K273A, A299H counted along it
Source text: as §1
as §2, with “After overnight incubation, cells were transfected with WT or mutant receptors using Lipofectamine 3000 transfection reagent (Invitrogen).” left out
as §5, §4

RXFP4 F105A = biological target: T7, RXFP4 F105A (Homo sapiens, UniProt Q8TDU9, F105A); test: cAMP accumulation, RXFP4 F105A; format: cell-based
T7 construct: RXFP4(1-374)-; expressed in transfected cells; host or cells: HEK293T, transient (pCMV6)
T7 sequence (Q8TDU9 whole entry F105A): as the sequence (Q8TDU9 whole entry H299A) above, with F105A, A299H counted along it
Source text: as §1, §2, §3, §4

RXFP4 T295V = biological target: T8, RXFP4 T295V (Homo sapiens, UniProt Q8TDU9, T295V); test: cAMP accumulation, RXFP4 T295V; format: cell-based
T8 construct: RXFP4(1-374)-; expressed in transfected cells; host or cells: HEK293T, transient (pCMV6)
T8 sequence (Q8TDU9 whole entry T295V): as the sequence (Q8TDU9 whole entry H299A) above, with T295V, A299H counted along it
Source text: as §1
as §2, with “After overnight incubation, cells were transfected with WT or mutant receptors using Lipofectamine 3000 transfection reagent (Invitrogen).” left out
as §5, §4

human RXFP4 [2] = biological target: T4, human RXFP4; test: inhibition of forskolin-induced cAMP accumulation, WT RXFP4 (hRXFP4-CHO); format: cell-based
Procedure: as §2, §3, §6

[3] = HEK293T, 1.5 μM forskolin, mean ± S.E.M., n = 3, N.A., not active, read-out: pEC50 (converted)

## CCOc1cc2c(cc1OC)CCN(C(=O)N1CCOCC1)[C@H]2CCc1c[nH]c2ccc(OC)cc12 [DC591053, (S)-(7-ethoxy-6-methoxy-1-(2-(5-methoxy-1H-indol-3-yl)ethyl)−3,4-dihydroisoquinolin-2(1H)-yl)(morpholino)methanone]
RXFP4 H299A; HEK293T
  reduction of Emax vs WT: 65%
RXFP4 H299A; [3]
  EC50: 3.63 nM
RXFP4 H299A; HEK293T, mean ± S.E.M.
  Emax: 36.04 ± 4.01 % WT
RXFP4 WT; HEK293T, read-out: pEC50 (converted)
  EC50: 34.7 nM
RXFP4 WT; HEK293T
  Emax: 97.18 ± 3.11 % WT
RXFP4 L118S+V122S
  decrease of potency vs WT: 20.9 fold
RXFP4 L118S+V122S; 1.5 μM forskolin, mean ± S.E.M., n = 3, N.A., not active
  EC50: 724 nM
RXFP4 L118S+V122S; mean ± S.E.M.
  Emax: 84.85 ± 8.36 % WT
Human RXFP4 [1]; stably-transfected CHO-K1, 5 nM Eu-R3/I5, mean ± S.E.M., n = 3, read-out: pKi (converted)
  Ki: 112 nM
RXFP4 W97A; HEK293T
  decrease of potency vs WT: 1.6 fold
RXFP4 W97A; [3]
  EC50: 56.2 nM
RXFP4 W97A; HEK293T, mean ± S.E.M.
  Emax: 108.65 ± 10.04 % WT
RXFP4 K273A; HEK293T, 1.5 μM forskolin, mean ± S.E.M., n = 3 or 4, read-out: pEC50 (converted)
  EC50: 1860 nM
RXFP4 K273A; HEK293T, mean ± S.E.M.
  Emax: 68.51 ± 8.34 % WT
RXFP4 F105A; HEK293T
  decrease of potency vs WT: 4.9 fold
RXFP4 F105A; HEK293T, 1.5 μM forskolin, mean ± S.E.M., n = 3, read-out: pEC50 (converted)
  EC50: 170 nM
RXFP4 F105A; HEK293T, mean ± S.E.M.
  Emax: 57.39 ± 4.17 % WT
RXFP4 T295V; HEK293T, 1.5 μM forskolin, mean ± S.E.M., n = 3 to 5, read-out: pEC50 (converted)
  EC50: 64.6 nM
RXFP4 T295V; HEK293T, mean ± S.E.M.
  Emax: 30.00 ± 4.54 % WT
Human RXFP4 [2]; stably-transfected CHO-K1
  agonism: full agonism
Human RXFP4 [2]; stably-transfected CHO-K1, 1.5 μM forskolin, 40 min RT, TR-FRET, mean ± S.E.M., n = 3, read-out: pEC50 (converted)
  EC50: 57.5 nM

## CC[C@H](C)[C@@H]1NC(=O)[C@H](Cc2ccc(O)cc2)NC(=O)[C@H]([C@@H](C)CC)NC(=O)[C@H](C(C)C)NC(=O)[C@H]([C@@H](C)O)NC(=O)[C@H](CCCNC(=N)N)NC(=O)[C@H]([C@@H](C)CC)NC(=O)[C@H](Cc2ccc(O)cc2)NC(=O)[C@H](CCC(=O)O)NC(=O)[C@H](CC(C)C)NC(=O)CNC(=O)[C@@H](NC(=O)[C@H](CC(C)C)NC(=O)[C@H](CCCNC(=N)N)NC(=O)[C@@H](NC(=O)[C@H](CO)NC(=O)[C@H](CCC(=O)O)NC(=O)[C@@H](N)CCCCN)C(C)C)CSSC[C@@H]2NC(=O)[C@@H](NC(=O)[C@H](CC(C)C)NC(=O)[C@@H](NC(=O)[C@H](CCC(N)=O)NC(=O)[C@H](CC(C)C)NC(=O)[C@H](CC(=O)O)NC(=O)[C@@H](N)CCC(N)=O)[C@@H](C)O)CSSC[C@H](NC(=O)CNC(=O)[C@H](CC(=O)O)NC(=O)[C@H]([C@@H](C)O)NC2=O)C(=O)N[C@@H](CO)C(=O)N[C@@H](CCSC)C(=O)N[C@@H]([C@@H](C)O)C(=O)N[C@@H](CC(=O)O)C(=O)N[C@@H](CC(C)C)C(=O)N[C@@H](CO)C(=O)N[C@@H](C)C(=O)N[C@@H](CC(C)C)C(=O)N[C@H](C(=O)O)CSSC[C@@H](C(=O)N[C@@H](C)C(=O)N[C@@H](CO)C(=O)N[C@@H](CO)C(=O)N[C@@H](CCCNC(=N)N)C(=O)N[C@@H](Cc2c[nH]c3ccccc23)C(=O)O)NC1=O [INSL5, insulin-like peptide 5]
RXFP4 H299A
  EC50: 0.955 nM
RXFP4 H299A; HEK293T, mean ± S.E.M.
  Emax: 30.77 ± 3.77 % WT
RXFP4 WT; HEK293T
  Emax: 99.88 ± 2.28 % WT and 98.86 ± 3.65 % WT
RXFP4 WT; pEC50, HEK293T
  EC50: 0.759 nM and 0.955 nM
RXFP4 L118S+V122S
  response: inactive
Human RXFP4 [1]
  Ki: 6.46 nM
RXFP4 W97A
  EC50: 15.5 nM
RXFP4 W97A; HEK293T, mean ± S.E.M.
  Emax: 61.33 ± 5.34 % WT
RXFP4 K273A
  EC50: 3.55 nM
RXFP4 K273A; HEK293T, mean ± S.E.M.
  Emax: 58.10 ± 7.38 % WT
RXFP4 F105A
  EC50: 10 nM
RXFP4 F105A; HEK293T, mean ± S.E.M.
  Emax: 80.16 ± 4.08 % WT
RXFP4 T295V
  EC50: 0.692 nM
RXFP4 T295V; HEK293T, mean ± S.E.M.
  Emax: 91.17 ± 6.47 % WT
Human RXFP4 [2]
  EC50: 1.58 nM
